Assay results from patent US7256183B2, “Method for treating or preventing inflammatory diseases” (Inspire Pharmaceuticals, Inc., priority 2001, dated 2007).

Columns and labels:
[1] = tested on: ocular active anaphylaxis with egg albumin as an antigen; assay: Ocular active anaphylaxis, guinea pig egg albumin model; type: in vivo, albino guinea pigs; conditions: FIG. 2; for magnitude of reduction on eyeballs, UP4U versus reference controls: guinea pigs, egg albumin, 2% UP4U, 0.05% levocabastine, 0.025% ketotifen, 0.1% olopatadine eye drops
From the text: The guinea pig model of ocular active anaphylaxis with egg albumin as an antigen, serves as a testing system for anti-inflammatory and anti-allergic drugs (Yamaji, et al., Methods Find. Exp. Clin. Pharmacol. 19(9): 637-43 (1997)). The ocular effects of compounds and vehicle control were investigated using an experimentally-induced ocular active anaphylaxis in the guinea pig. Ten albino guinea pigs per group were sensitized with an intraperitoneal injection of egg albumin, followed 14 days later with a challenge by a single ocular instillation of egg albumin. Four times daily for 3 days and twice on the fourth day (the last one 2 h before challenge), test substances were instilled into the right conjunctival sac of the animals. The immune response was induced by immunization with egg albumin, and the ocular reaction was induced by ocular instillation of egg albumin, thereby causing the release of allergy mediators and ocular edema. Efficacy was evaluated by measuring edema: clinical scores and extravasation of Evans blue dye (blood-eyelids and blood-eyeballs permeability indexes). Comparison was made between the test substances, the test substances vehicle, the reference substance (0.05% levocabastine eye drops—Lévophta®; 0.025% ketotifen eyedrops—Zaditor®; and 0.1% olopatadine eyedrops—Patanol™), and negative control animals (untreated and unchallenged). The model was previously validated (Khosravi, et al., Inflamm. Res. 44(1): 47-54 (1995)).

[2] = tested on: compound 48/80 ocular surface type-1 hypersensitivity; assay: Ocular Type-1 hypersensitivity in albino rats (topical 48/80 model); type: in vivo; conditions: FIG. 1; for magnitude of reduction in vascular leakage and Evans blue extravasation, UP4U versus reference controls: rats, 48/80, 2% UP4U, 0.05% levocabastine, 0.025% ketotifen, 0.1% olopatadine eye drops
Description: The rat model of ocular immediate (Type-1) hypersensitivity using topical compound 48/80 was used for testing anti-inflammatory drugs (Feinberg and Stokes, Int. Arch. Allergy Appl. Immunol. 82(3-4): 537-8. (1987)). The effects of levocabastine, ketotifen, and olopatadine, which are three approved drugs for the use of ocular surface inflammation, particularly allergic conjunctivitis, were assessed. UP4U was investigated for its effects on mitigating the clinical signs of compound 48/80 on ocular surface type-1 hypersensitivity. Ten albino rats per group were administered compound or vehicle four times daily for 3 days and twice on the fourth day (the last administration 2 h before challenge with 48/80). Comparison was made between the test substances, the test substances vehicle, the reference substance (0.05% levocabastine eye drops—Lévophta®; 0.025% ketotifen eyedrops—Zaditor®; and 0.1% olopatadine eyedrops—Patanol™), and negative control animals (untreated and unchallenged). Eye drops were instilled into the right conjunctival sac of each animal with test substances. […] The formulated compounds or vehicle were allowed to gradually run from the top to the bottom of the ocular surface. Efficacy was evaluated by measuring edema: clinical scores and extravasation of Evans blue dye (blood-eyelids and blood-eyeballs permeability indexes). The model has been previously validated (Khosravi, et al., Inflamm. Res. 44(1): 47-54 (1995)).

[3] = tested on: symptoms of perennial allergic rhinitis (PAR); assay: Perennial allergic rhinitis symptom study with nasal spray; type: in vivo, humans
From the text: This example illustrates the efficacy of a U[…] nasal spray in reducing the symptoms of perennial allergic rhinitis (PAR) in humans. Patients with PAR suffer year-round from symptoms of allergic rhinitis because they are sensitized to allergens that are present in homes and the environment throughout the year, including dust mites, molds, and animal […] (dogs, cats, cockroaches, etc). Patients with PAR experience a constellation of nasal symptoms including nasal stuffiness/congestion, runny nose, post-nasal drip, sneezing and nasal itching. These symptoms were evaluated in pivotal efficacy trials as the total nasal symptom score (TNSS) as well as by evaluating each individual symptom, including the non-nasal symptoms of facial pain/pressure and cough. Patients rated each individual symptom on a scale from 0 (none) to 3 (severe) twice daily, reflecting their symptoms upon awakening (AM) and throughout the day (PM). Fifty-nine subjects with a documented history of PAR participated in a randomized, double-blind, 3-center, parallel-group study. […] Study medication was delivered twice daily as a non-preserved aqueous nasal spray as 2 sprays (100 μL in each spray) in each nostril. […] This was most notable for the 10 mg/ml U[…] group. Comparisons of pooled active versus placebo TNSS scores approached statistical significance for AM scores (p=0.139). Table 3 indicates the symptom and dose combinations that provided statistically significant reductions (p≦0.05) compared with placebo on any day during the 6-day treatment period. Conversely, significant symptom reductions in favor of placebo were observed on one day (PM sneezing, Day 2).

[4] = tested on: mucociliary clearance of nasal tissue; assay: Nasal spray saccharin transport time (STT) test; type: in vivo, humans; conditions: for mean STT: pooled PAR and NR and across doses 5-80 mg/mL, single dose nasal spray, with outliers, (±SD); for STT mean (± SD): across all cohorts, NR and PAR groups pooled, without outliers (<1 minute or >30 minutes excluded)
Description: The speed with which the saccharin was transported this distance is a measure of mucociliary clearance.
Sixty subjects, 30 healthy non-rhinitic (NR) volunteers and 30 subjects with perennial allergic rhinitis (PAR), participated in a randomized, double-blind, single-center, 2-period crossover study evaluating escalating, single doses of a UP4dC nasal spray delivered as a non-preserved aqueous nasal spray. Each subject received a single dose (2 sprays in each nostril, 140 μL/spray) of UP4dC and placebo (0.9% w/v saline spray) on two treatment days in random order (crossover design). Five cohorts of 12 subjects received five concentration levels of UP4dC (5, 10, 20, 40, and 80 mg/mL) in ascending order. The STT was performed 5-minutes and 300-minutes post-dose on each treatment day on each subject (a saccharin particle was placed in the nose at 5 and 300 minutes post-dose and then time to taste was recorded).
Analyses were carried out excluding those STT values that were either too fast (<1 minute) or too slow (>30 minutes). Both of these scenarios are deemed as errors and are a likely result of the saccharin particle being inappropriately administered.

[5] = 5 mg/mL, 6-day treatment period
[6] = 10 mg/mL, 6-day treatment period
[7] = 40 mg/mL, 6-day treatment period

CN(C)CC/C=C1/c2ccccc2COc2ccc(CC(=O)O)cc21 [olopatadine, reference compound]
magnitude of reduction on eyeballs, UP4U versus reference controls [1]: comparable | magnitude of reduction in vascular leakage and Evans blue extravasation, UP4U versus reference controls [2]: comparable

C[C@@H]1CN([C@H]2CC[C@](C#N)(c3ccc(F)cc3)CC2)CC[C@]1(C(=O)O)c1ccccc1 [levocabastine, reference compound]
magnitude of reduction on eyeballs, UP4U versus reference controls [1]: comparable | magnitude of reduction in vascular leakage and Evans blue extravasation, UP4U versus reference controls [2]: comparable

O=c1ccn([C@@H]2O[C@H](COP(=O)(O)OP(=O)(O)OP(=O)(O)OP(=O)(O)OC[C@H]3O[C@@H](n4ccc(=O)[nH]c4=O)[C@H](O)[C@@H]3O)[C@@H](O)[C@H]2O)c(=O)[nH]1 [UP4U, P^1,P^4-di(uridine 5′-)tetraphosphate]
vascular leakage and Evans blue extravasation on eyeballs ([1]; guinea pigs challenged with egg albumin, 2% UP4U eye drops four times daily for 3 days and twice on the fourth day): reduced | magnitude of reduction on eyeballs, UP4U versus reference controls [1]: comparable | vascular leakage and Evans blue extravasation on eyelids and eyeballs ([2]; rats treated with 48/80 on the ocular surface, 2% UP4U eye drops four times daily for 3 days and twice on the fourth day): reduced | magnitude of reduction in vascular leakage and Evans blue extravasation, UP4U versus reference controls [2]: comparable

Nc1ccn([C@H]2C[C@H](O)[C@@H](COP(=O)(O)OP(=O)(O)OP(=O)(O)OP(=O)(O)OC[C@H]3O[C@@H](n4ccc(=O)[nH]c4=O)[C@H](O)[C@@H]3O)O2)c(=O)n1 [UP4dC, P^1-(2′-deoxycytidine 5′)-P^4-(uridine 5′-)tetraphosphate]
days with statistically significant reductions (p≦0.05) compared with placebo: Nasal blockage/stuffiness [3, 5]: AM-Day 4 | days with statistically significant reductions (p≦0.05) compared with placebo: Post-nasal drip [3, 5]: AM-Days 4 and 6 | days with statistically significant reductions (p≦0.05) compared with placebo: Nasal blockage/stuffiness [3, 6]: AM-Day 5 | days with statistically significant reductions (p≦0.05) compared with placebo: Post-nasal drip [3, 6]: AM-Days 5 and 6 | days with statistically significant reductions (p≦0.05) compared with placebo: Rhinorrhea [3, 6]: PM-Day 5 | days with statistically significant reductions (p≦0.05) compared with placebo: Total Symptom Score [3, 6]: AM-Days 5 and 6 | days with statistically significant reductions (p≦0.05) compared with placebo: Itching [3, 7]: AM-Day 3 | days with statistically significant reductions (p≦0.05) compared with placebo: TNSS [3, 7]: AM-Day 3 | days with statistically significant reductions (p≦0.05) compared with placebo: Total Symptom Score [3, 7]: PM-Day 5 | change from the placebo run-in period in TNSS averaged over the entire 6-day treatment period ([3]; AM (0–15 scale), 5 mg/mL nasal spray twice daily): −0.96 (2.08) | change from the placebo run-in period in TNSS averaged over the entire 6-day treatment period ([3]; AM (0–15 scale), 10 mg/mL nasal spray twice daily): −1.20 (2.00) | change from the placebo run-in period in TNSS averaged over the entire 6-day treatment period ([3]; AM (0–15 scale), 40 mg/mL nasal spray twice daily): −1.14 (2.02) | change from the placebo run-in period in TNSS averaged over the entire 6-day treatment period ([3]; AM + PM (0–30 scale), 5 mg/mL nasal spray twice daily): −2.02 (4.31) | change from the placebo run-in period in TNSS averaged over the entire 6-day treatment period ([3]; AM + PM (0–30 scale), 10 mg/mL nasal spray twice daily): −2.59 (4.50) | change from the placebo run-in period in TNSS averaged over the entire 6-day treatment period ([3]; AM + PM (0–30 scale), 40 mg/mL nasal spray twice daily): −2.09 (3.99) | change from the placebo run-in period in TNSS averaged over the entire 6-day treatment period ([3]; PM (0–15 scale), 5 mg/mL nasal spray twice daily): −0.94 (2.07) | change from the placebo run-in period in TNSS averaged over the entire 6-day treatment period ([3]; PM (0–15 scale), 10 mg/mL nasal spray twice daily): −1.26 (2.46) | change from the placebo run-in period in TNSS averaged over the entire 6-day treatment period ([3]; PM (0–15 scale), 40 mg/mL nasal spray twice daily): −1.01 (2.55) | reductions in TNSS compared with placebo for AM, PM, and AM+PM analyses ([3]; active treatment groups 5, 10, 40 mg/mL, not statistically significant versus placebo): consistently greater reductions | mean STT ([4]; 5-hour (300-minute) post-dose assessment): 9.58 (±10.30) minutes | mean STT ([4]; 5-minute post-dose assessment): 7.04 (±6.06) minutes | STT mean (± SD) ([4]; 5 minute): 6.89 (5.36) minutes | STT mean (± SD) ([4]; 300 minute): 8.41 (5.79) minutes | time elapsed before the saccharin was tasted compared to placebo ([4]; UP4dC nasal spray, single dose, humans): shorten

CN1CCC(=C2c3ccccc3CC(=O)c3sccc32)CC1 [ketotifen, reference compound]
magnitude of reduction on eyeballs, UP4U versus reference controls [1]: comparable | magnitude of reduction in vascular leakage and Evans blue extravasation, UP4U versus reference controls [2]: comparable
